We go through five compounds from patent US8246966B2, “Trypanosome microsome system and uses thereof” (priority 2006, dated 2012).

Assay [1] concerns T. brucei microsomes (TbRM). The assay can be described thus: Post-translational import of VSG-11786 into TbRM with inhibitors (Example 4). In kind it is biochemical, Trypanosoma brucei. Here is the method:
FIGS. 7A to 7C. […] VSG-11786 mRNA was translated in rabbit reticulocyte lysate in the absence or presence of T. brucei cytosol for 1 hour at 37° C., and then cycloheximide was added to stop protein synthesis. TbRM (1 equivalent) and MAL3-101 (10 μM), MAL3-51 (10 μM), or an equal volume of DMSO was added to the samples on ice, and the mixture was incubated at 37° C. for 1.5 hours for translocation of VSG-11786 into the microsomes. Reaction mixtures were treated with proteinase K (PK) for one hour on ice. Proteolysis was terminated with PMSF. Proteins were precipitated with ammonium sulfate, pelleted by centrifugation, resuspended in SDS-PAGE sample buffer, and resolved by Tris-Tricine SDS-PAGE. Gel images were obtained with a phosphorimager and analyzed with Quantity-One software. Reaction mixtures for odd numbered lanes contained TbRM, but not proteinase K; even numbered lanes contained TbRM and proteinase K. Brackets denote lanes that were compared to obtain percentage of VSG-11786 import values. FIG. 7B is a graphical representation of data from FIG. 7A. […] In FIG. 7C, the effect of MAL3-101 on T. brucei growth.
FIGS. 8A to 8D. Effects of NFI028 and CAM741 on import of VSG-11786 into T. brucei microsomes. […] VSG-11786 mRNA was translated in rabbit reticulocyte lysate in the presence of T. brucei cytosol for one hour at 37° C., and then protein synthesis was stopped by the addition of cycloheximide. […] Reaction mixtures were treated with proteinase K (PK) on ice for one hour. Proteolysis was terminated with PMSF. Proteins were precipitated with ammonium sulfate, pelleted, resuspended in SDS-PAGE sample buffer, and resolved by Tris-Tricine SDS-PAGE. Images of radiolabeled proteins were obtained with a phosphorimager and quantitated with Quantity-One software. Samples depicted in odd numbered lanes contained TbRM, but were not treated proteinase K. Reaction mixtures shown in even numbered lanes contained TbRM and were treated with proteinase K. Brackets denote lanes that were compared to each other in order to obtain percentage of VSG-11786 import values. FIG. 8B is a graphical representation of data from FIG. 8A.
FIGS. 9A to 9D. Effects of azide, AEE788, and valinomycin on VSG-11786 import into T. brucei microsomes. […] VSG-11786 mRNA was translated in rabbit reticulocyte lysate in the presence of T. brucei cytosol for one hour at 37° C. Cycloheximide was added to stop proteins synthesis. TbRM (1 equivalent) and sodium azide (8 μM), AEE788 (8 μM), an equal volume of microsome buffer (RMB) or DMSO was added to the samples on ice, and the mixtures were incubated at 37 C for 1.5 hours. Reaction mixtures were treated with proteinase K (PK) on ice for one hour. Proteolysis was terminated with PMSF. Proteins were precipitated with ammonium sulfate, pelleted, resuspended in SDS-PAGE sample buffer, and resolved by Tris-Tricine SDS-PAGE. Images of radiolabeled proteins were obtained with a phosphorimager and quantitated with Quantity-One software. Brackets show lanes that were compared to each other in order to obtain percentage of VSG-11786 imported into TbRM. Lanes 1, 3, 5, & 7 were treated with TbRM, but not proteinase K. Lanes 2, 4, 6, & 8 were treated with TbRM and proteinase K. FIG. 9B is a graphical representation of data from FIG. 9A. […] Reaction mixtures depicted in odd lanes contained TbRM, but were not treated with proteinase K; even lanes contained TbRM and were treated with proteinase K. FIG. 9D is a graphical representation of data from panel FIG. 9C.

In assay [2] the test system is bloodstream T. brucei. To be noted: del Rayo Camacho et al., 2002; read-out: IC50 of drug used to treat human African trypanosomiasis; cited from earlier work.
Assay [3] relates to Bloodstream T. brucei CA427. Put plainly: Bloodstream T. brucei cell culture drug susceptibility (Example 4). The format is cell-based, Trypanosoma brucei. The settings on record: cultured bloodstream T. brucei; read-out: IG50, T. brucei growth. As to the method:
Cell Culture. Bloodstream T. brucei cell culture and drug susceptibility studies were performed as previously described. Bloodstream T. brucei CA427 were cultured in HMI-9 media (Hirumi and Hirumi, 1994, Parasitol Today; 10(2):80-4) to a density of 10^6 cells/ml. Cells were seeded (500 μl of 4×10^4 cells/ml) to a 24-well plate and exposed to MAL3-101, CAM741, and NFI028 at listed concentrations (see figure legends) or an equal volume of DMSO. Cells were incubated at 37° C. and counted after 24 and 48 hours, using a hemocytometer.

Turning to `CCN1CCN(Cc2ccc(-c3cc4c(N[C@H](C)c5ccccc5)ncnc4[nH]3)cc2)CC1` [AEE788], the “inhibition of post-translational import of VSG-11786 into TbRM” value in assay [1] (AEE788 8 μM) is “failed to inhibit”. `N=C(N)c1ccc(OCCCCCOc2ccc(C(=N)N)cc2)cc1` [pentamidine]: in assay [2], the IC50 is 0.3 nM. On to `Cc1ccc(C(=O)Nc2ccc(S(=O)(=O)O)c3cc(S(=O)(=O)O)cc(S(=O)(=O)O)c23)cc1NC(=O)c1cccc(NC(=O)Nc2cccc(C(=O)Nc3cc(C(=O)Nc4ccc(S(=O)(=O)O)c5cc(S(=O)(=O)O)cc(S(=O)(=O)O)c45)ccc3C)c2)c1` [suramin], for which, in assay [2], the IC50 was 1400 to 2300 nM. In the case of `CC(C)[C@@H]1NC(=O)[C@H](C)OC(=O)[C@@H](C(C)C)NC(=O)[C@@H](C(C)C)OC(=O)[C@H](C(C)C)NC(=O)[C@H](C)OC(=O)[C@@H](C(C)C)NC(=O)[C@@H](C(C)C)OC(=O)[C@H](C(C)C)NC(=O)[C@H](C)OC(=O)[C@@H](C(C)C)NC(=O)[C@@H](C(C)C)OC1=O` [valinomycin], the “efficiency of VSG-11786 import into TbRM” value in assay [1] (valinomycin 0.5 μM) is “not affected”. As to CAM741, the IC50 in assay [3] turned out to be 2000 nM. In assay [1] (CAM741 1 μM, DMSO 74%), the “VSG-11786 import into TbRM” value was found to be 73%.
